Data as given in ChEMBL document CHEMBL4622951, “Chemical constituents of Callistemon citrinus from Egypt and their antiausterity activity against PANC-1 human pancreatic cancer cell line” (2020).
Active and inactive are the calls of the source. The rule behind the calls is not given here.

Tests used:
[1] = tested on: PANC-1; assay: Cytotoxicity against human PANC1 cells in nutrient-deprived medium; format: functional
[2] = tested on: PANC-1; assay: Induction of apoptosis in human PANC1 cells assessed as decrease in membrane integrity at 1 nM incubated for 24 hrs by ethidium bromide and acridine orange based phase contrast microscopy analysis; format: functional, cell-based
[3] = tested on: PANC-1; assay: Inhibition of cell migration of human PANC1 cells at 10 uM measured after 12 hrs by wound healing assay (reference value: 73 %); format: functional; details: PANC-1, 12 h
[4] = tested on: PANC-1; assay: Inhibition of cell migration of human PANC1 cells at 20 uM measured after 12 hrs by wound healing assay (reference value: 73 %); format: functional; details: PANC-1, 12 h
[5] = tested on: PANC-1; assay: Inhibition of cell migration of human PANC1 cells at 10 uM measured after 24 hrs by wound healing assay (reference value: 46 %); format: functional; details: PANC-1, 24 h
[6] = tested on: PANC-1; assay: Inhibition of cell migration of human PANC1 cells at 20 uM measured after 24 hrs by wound healing assay (reference value: 46 %); format: functional; details: PANC-1, 24 h
[7] = tested on: PANC-1; assay: Inhibition of cell migration of human PANC1 cells at 10 uM measured after 36 hrs by wound healing assay (reference value: 100 %); format: functional; details: PANC-1, 36 h
[8] = tested on: PANC-1; assay: Inhibition of cell migration of human PANC1 cells at 20 uM measured after 36 hrs by wound healing assay (reference value: 100 %); format: functional; details: PANC-1, 36 h
[9] = tested on: PANC-1; assay: Inhibition of cell migration of human PANC1 cells at 10 uM measured after 48 hrs by wound healing assay (reference value: 100 %); format: functional; details: PANC-1, 48 h
[10] = tested on: PANC-1; assay: Inhibition of cell migration of human PANC1 cells at 20 uM measured after 48 hrs by wound healing assay (reference value: 100 %); format: functional; details: PANC-1, 48 h
[11] = tested on: PANC-1; assay: Inhibition of cell migration of human PANC1 cells measured upto 48 hrs by wound healing assay; format: functional, cell-based
[12] = tested on: PANC-1; assay: Inhibition of colony formation of human PANC1 cells at 2.5 to 10 uM incubated for 24 hrs followed by compound washout and subsequent incubation for 10 days by crystal violet staining based assay; format: functional, cell-based

C[C@H]1[C@H](C)CC[C@]2(CO)CC[C@]3(C)C(=CC[C@@H]4[C@@]5(C)CC[C@H](O)C(C)(C)[C@@H]5CC[C@]43C)[C@H]12 [UVAOL]
PC50 [1]: 5.2 µM

CC(=O)[C@@H]1CC[C@]2(C(=O)O)CC[C@]3(C)[C@H](CC[C@@H]4[C@@]5(C)CC[C@H](O)C(C)(C)[C@@H]5CC[C@]43C)[C@@H]12 [PLATANIC ACID]
PC50 [1]: 14.2 µM

CC(C)CC(=O)c1c(O)c2c(c([C@H](C3=C(O)C(C)(C)C(=O)C(C)(C)C3=O)C(C)C)c1O)O[C@]1(C)C=C[C@@H](C(C)C)C[C@H]21
Activity [2]: Active
inhibition at 10 µM [3]: 87%
inhibition at 20 µM [4]: 96%
inhibition at 10 µM [5]: 76%
inhibition at 20 µM [6]: 94%
inhibition at 10 µM [7]: 67%
inhibition at 20 µM [8]: 89%
inhibition at 10 µM [9]: 65%
inhibition at 20 µM [10]: 80%
inhibition [11]: Dose-dependent effect
inhibition [12]: Active

COc1cc(C[C@H]2C(=O)OC[C@@H]2Cc2ccc(OC)c(OC)c2)ccc1O [ARCTIGENIN]
PC50 [1]: 0.7 µM

C=C(C)[C@@H]1CC[C@]2(CO)CC[C@]3(C)[C@H](CC[C@@H]4[C@@]5(C)CC[C@H](O)C(C)(C)[C@@H]5CC[C@]43C)[C@@H]12 [BETULIN]
PC50 [1]: 0.7 µM

C[C@H]1[C@H](C)CC[C@]2(C(=O)O)CC[C@]3(C)C(=CC[C@@H]4[C@@]5(C)CC[C@H](O)C(C)(C)[C@@H]5CC[C@]43C)[C@H]12 [URSOLIC ACID]
PC50 [1]: 13.7 µM

C=C(C)[C@@H]1CC[C@]2(C(=O)O)CC[C@]3(C)[C@H](CC[C@@H]4[C@@]5(C)CC[C@H](O)C(C)(C)[C@@H]5CC[C@]43C)[C@@H]12 [BETULINIC ACID]
PC50 [1]: 15.2 µM

CC1(C)CC[C@]2(CO)CC[C@]3(C)C(=CC[C@@H]4[C@@]5(C)CC[C@H](O)C(C)(C)[C@@H]5CC[C@]43C)[C@@H]2C1 [ERYTHRODIOL]
PC50 [1]: 0.2 µM

CC1(C)CC[C@]2(C(=O)O)CC[C@]3(C)C(=CC[C@@H]4[C@@]5(C)CC[C@H](O)C(C)(C)[C@@H]5CC[C@]43C)[C@@H]2C1 [OLEANOLIC_ACID]
PC50 [1]: 20.5 µM

C[C@@H]1CC[C@@]23CC[C@]4(C)[C@@](C=C[C@@H]5[C@@]6(C)CC[C@H](O)C(C)(C)[C@@H]6CC[C@]54C)(OC2=O)C3[C@H]1C (stereo not given in full)
PC50 [1]: 0.4 µM
